Results published in ChEMBL document CHEMBL2331411, “Pyrrolopyrimidine inhibitors of DNA gyrase B (GyrB) and topoisomerase IV (ParE). Part I: Structure guided discovery and optimization of dual targeting agents with potent, broad-spectrum enzymatic activity” (Bioorg Med Chem Lett, 2013).
pKi: −log10 of the molar value. Values after ≈ are worked out from the molar mass of the structure shown.

Columns and labels:
[1] = Inhibition of Escherichia coli DNA topoisomerase 4 subunit B using ATP as substrate assessed as release of inorganic phosphate incubated for 10 mins prior to substrate addition measured after 30 mins by spectrophotometric analysis
[2] = Inhibition of Enterococcus faecalis DNA topoisomerase 4 subunit B using ATP as substrate assessed as release of inorganic phosphate incubated for 10 mins prior to substrate addition measured after 30 mins by spectrophotometric analysis
[3] = Inhibition of Francisella tularensis DNA topoisomerase 4 subunit B using ATP as substrate assessed as release of inorganic phosphate incubated for 10 mins prior to substrate addition measured after 30 mins by spectrophotometric analysis
[4] = Inhibition of Enterococcus faecalis DNA gyrase subunit B using ATP as substrate assessed as release of inorganic phosphate incubated for 10 mins prior to substrate addition measured after 30 mins by spectrophotometric analysis
[5] = Inhibition of Francisella tularensis DNA gyrase subunit B using ATP as substrate assessed as release of inorganic phosphate incubated for 10 mins prior to substrate addition measured after 30 mins by spectrophotometric analysis
Staphylococcus aureus = experiment: Antibacterial activity against Staphylococcus aureus assessed as growth inhibition; format: functional
[6] = Inhibition of Acinetobacter baumannii DNA topoisomerase 4 subunit B using ATP as substrate assessed as release of inorganic phosphate incubated for 10 mins prior to substrate addition measured after 30 mins by spectrophotometric analysis

Molecule CCc1[nH]c2nc(Sc3ccc4c(c3)C(=O)NC4)nc(N3CC[C@@H](N)C3)c2c1Cl has a pKi [1] of 7.96, a pKi [2] of 7.72 and a pKi [3] of 8.70. The pKi [4] was 8.15 and the pKi [5] was 8.05.
Work on CCc1[nH]c2nc(Sc3cnc4[nH][nH]c(=O)c4c3)nc(N3CC[C@@H](N)C3)c2c1Cl yielded a pKi [1] of 8.22, a pKi [2] of 7.62 and a pKi [3] of 8.40. The pKi [4] was 8.22 and the pKi [5] was 8.30.
With CCc1[nH]c2nc(Sc3ccc4nc[nH]c(=O)c4c3)nc(N3CC[C@@H](N)C3)c2c1Cl the pKi [1] was 8.40, the pKi [2] was 7.85 and the pKi [3] was 8.70. It also gave a pKi [4] of over 9.00.
CCc1[nH]c2nc(Sc3cnc4ncc(=O)[nH]c4c3)nc(N3CC[C@@H](N)C3)c2c1Cl showed a pKi [1] of 7.96, a pKi [2] of 7.89 and a pKi [3] of 8.22. For the same molecule, the pKi [4] was over 9.00 and the pKi [5] was 9.00.
For CCc1[nH]c2nc(Sc3ccc4cc5c(nc4c3)C(=O)OC5)nc(N3CC[C@@H](N)C3)c2c1Cl, the pKi [1] was over 9.00, the pKi [2] was over 9.00 and the pKi [3] was 8.70. The pKi [4] was over 9.00.
In the case of CCc1[nH]c2nc(Sc3cncnc3)nc(N3CC4C(N)C4C3)c2c1Cl (configuration not stated), the pKi [1] was 7.44, the pKi [2] was 7.10 and the pKi [3] was 7.82. For the same molecule, the pKi [4] was 8.30 and the pKi [5] was 8.70.
In the case of CCc1[nH]c2nc(Sc3cnc4cccnc4c3)nc(N3CC4C(N)C4C3)c2c1Cl (configuration not stated), the pKi [1] was 9.00, the pKi [2] was 8.00 and the pKi [3] was 8.70. The pKi [4] was 9.00 and the pKi [5] was over 9.00.
Molecule CCc1[nH]c2nc(Oc3cncnc3)nc(N3CC[C@@H](N)C3)c2c1Cl has a pKi [1] of 7.42, a pKi [2] of 7.08 and a pKi [3] of 7.82. The pKi [4] was over 9.00 and the pKi [5] was 8.52.
CCc1[nH]c2nc(Oc3cncnc3)nc(N3CC4C(N)C4C3)c2c1Cl (configuration not stated) showed a pKi [1] of 8.40, a pKi [2] of 8.00 and a pKi [3] of 8.70. It also gave a pKi [4] of over 9.00.
Molecule CCc1[nH]c2nc(Oc3cnc4cccnc4c3)nc(N3CC4C(N)C4C3)c2c1Cl (configuration not stated) has a pKi [1] of over 9.00, a pKi [2] of 8.52 and a pKi [4] of over 9.00.
Molecule CCc1[nH]c2nc(Sc3cnc4nccnc4c3)nc(N3CCC(N)CC3)c2c1Cl has a pKi [1] of 7.44, a pKi [2] of 7.16 and a pKi [3] of 8.22. It also gave a pKi [4] of over 9.00 and a pKi [5] of 8.52.
CCc1[nH]c2nc(Sc3cnc4nccnc4c3)nc(N3C[C@H]4CN[C@H]4C3)c2c1Cl showed a pKi [1] of 8.70, a pKi [2] of 8.05 and a pKi [3] of 9.00. It also gave a pKi [4] of over 9.00.
Molecule CCc1[nH]c2nc(Sc3cnc4nccnc4c3)nc(N3C[C@H]4CCN[C@H]4C3)c2c1Cl has a pKi [1] of 8.22, a pKi [2] of 7.72 and a pKi [3] of 8.05. It also gave a pKi [4] of 8.22 and a pKi [5] of over 9.00.
For CCc1[nH]c2nc(Sc3cnc4nccnc4c3)nc(N3C[C@H]4CCCN[C@H]4C3)c2c1Cl, the pKi [1] was 7.77, the pKi [2] was 7.54 and the pKi [3] was 8.00. For the same molecule, the pKi [4] was 8.05 and the pKi [5] was over 9.00.
CCc1[nH]c2nc(Sc3cnc4nccnc4c3)nc(N3CC4C(N)C4C3)c2c1Cl (configuration not stated) gave a pKi [1] of over 9.00, a pKi [2] of 8.40 and a pKi [4] of over 9.00.
In the case of CCc1[nH]c2nc(Sc3cncnc3)nc(N3CC[C@@H](N)C3)c2c1Cl, the pKi [1] was 6.90, the pKi [2] was 6.80 and the pKi [3] was 7.44. The pKi [4] was 8.40 and the pKi [5] was 8.10.
CCc1[nH]c2nc(Sc3ccc4cccnc4c3)nc(N3CC[C@@H](N)C3)c2c1Cl showed a pKi [1] of 7.10, a pKi [2] of 6.83 and a pKi [3] of 7.57. The pKi [4] was 8.40 and the pKi [5] was 8.00.
CCc1[nH]c2nc(Sc3ccc4ccc[n+]([O-])c4c3)nc(N3CC[C@@H](N)C3)c2c1Cl showed a pKi [1] of 8.15, a pKi [2] of 7.82 and a pKi [3] of 8.52. For the same molecule, the pKi [4] was over 9.00.
Work on CCc1[nH]c2nc(Sc3cnc4cccnc4c3)nc(N3CC[C@@H](N)C3)c2c1Cl yielded a pKi [1] of over 9.00, a pKi [2] of 8.70 and a pKi [4] of over 9.00.
Work on CCc1[nH]c2nc(Sc3ccc4cncnc4c3)nc(N3CC[C@@H](N)C3)c2c1Cl yielded a pKi [1] of 8.30, a pKi [2] of 8.15 and a pKi [3] of 8.70. It also gave a pKi [4] of over 9.00.
CCc1[nH]c2nc(Sc3cnc4ccc[n+]([O-])c4c3)nc(N3CC[C@@H](N)C3)c2c1Cl gave a pKi [1] of 8.30, a pKi [2] of 8.30 and a pKi [3] of 9.00. For the same molecule, the pKi [4] was over 9.00.
With CCc1[nH]c2nc(Sc3ccc4ccc(C(=O)O)nc4c3)nc(N3CC[C@@H](N)C3)c2c1Cl the pKi [1] was 8.70, the pKi [2] was 8.40 and the pKi [3] was 8.40. For the same molecule, the pKi [4] was over 9.00.
CCc1[nH]c2nc(Sc3ccc4c(N5CCC(N)C5)cc(C(=O)O)nc4c3)nc(N3CC[C@@H](N)C3)c2c1Cl (some centres not stated) showed a pKi [1] of 8.15, a pKi [2] of 7.72 and a pKi [3] of 8.22. It also gave a pKi [4] of over 9.00.
With CCc1[nH]c2nc(Sc3ccc4nc(N)n[n+]([O-])c4c3)nc(N3CC[C@@H](N)C3)c2c1Cl the pKi [1] was 8.70, the pKi [2] was 8.15 and the pKi [4] was over 9.00.
CCc1cc2c(Cl)nc(Sc3cccnc3)nc2[nH]1 showed an MIC (Staphylococcus aureus) of over 64 µg/mL and a pKi [4] of under 4.30.
For CCc1[nH]c2nc(Sc3cccnc3)nc(Cl)c2c1C=O, the MIC (Staphylococcus aureus) was 64 µg/mL (≈ 201 µM), the pKi [2] was 5.43 and the pKi [3] was 5.06. The pKi [4] was 6.10 and the pKi [5] was 5.92.
For CCc1[nH]c2nc(Sc3cccnc3)nc(Cl)c2c1C(C)=O, the MIC (Staphylococcus aureus) was 64 µg/mL (≈ 192 µM), the pKi [2] was 6.00 and the pKi [3] was under 4.70. The pKi [4] was 5.70 and the pKi [5] was 5.18.
Molecule CCc1[nH]c2nc(Sc3cccnc3)nc(Cl)c2c1C(F)F has an MIC (Staphylococcus aureus) of 64 µg/mL (≈ 188 µM), a pKi [2] of 5.92 and a pKi [3] of 6.40. The pKi [4] was 5.77 and the pKi [5] was 6.30.
CCc1[nH]c2nc(Sc3cccnc3)nc(Cl)c2c1Cl gave an MIC (Staphylococcus aureus) of 4 µg/mL (≈ 12.3 µM), a pKi [2] of 5.46 and a pKi [6] of 5.70. For the same molecule, the pKi [4] was 6.40 and the pKi [5] was 6.30.
Molecule CCc1[nH]c2nc(Sc3cccnc3)nc(Cl)c2c1Br has an MIC (Staphylococcus aureus) of 2 µg/mL (≈ 5.41 µM), a pKi [2] of 5.46 and a pKi [3] of 5.92. The pKi [4] was 6.52 and the pKi [5] was 6.40.
Work on CCc1[nH]c2nc(Sc3cccnc3)nc(OC)c2c1C=O yielded a pKi [2] of 5.92, a pKi [3] of 6.05 and a pKi [4] of 6.70. The pKi [5] was 6.10.
In the case of CCc1[nH]c2nc(Sc3cnc4nccnc4c3)nc(N3CC(N)C3)c2c1Cl, the pKi [1] was 7.41, the pKi [2] was 7.19 and the pKi [3] was 8.40. The pKi [4] was 8.40 and the pKi [5] was 8.15.
CCc1[nH]c2nc(Sc3cnc4nccnc4c3)nc(N3CC[C@@H](N)C3)c2c1Cl showed a pKi [1] of 7.96, a pKi [2] of 7.64 and a pKi [3] of 8.40. For the same molecule, the pKi [4] was 8.70 and the pKi [5] was over 9.00.
For CCc1[nH]c2nc(Sc3ccc4[nH]cc(C(=O)O)c(=O)c4c3)nc(N3CC[C@@H](N)C3)c2c1Cl, the pKi [1] was over 9.00, the pKi [2] was 8.22 and the pKi [4] was over 9.00.
